test: Cleavage experiments with a variety of cleavage agents, reaction mixtures analyzed by RP-HPLC (FIG. 77, 78A-78B); settings: after 10 minutes of incubation with cleave reagent
From the text: In addition to these a variety of suitable cleaving agents can be used such as Bis(2-mercaptoethyl)sulfone (BMS) and N,N′-dimethyl-N,N′-bis(mercaptoacetyl)hydrazine (DMH) (Singh et al., Bioorg. Chem., 22, 109-115 (1994). Reactions can be further catalyzed by inclusion of selenols (Singh et al. Anal Biochem. 1995 Nov. 20; 232(1):86-91 [18]). Borohydrides, such as sodium borohydrides can also be used for this purpose (Stahl et al., Anal. Chem., 1957, 29 (1), pp 151 155 [19]) as well as ascorbic acid (Nardai et al., J. Biol. Chem. 276, 8825-8828 (2001)). In addition, enzymatic methods for cleavage of disulfide bonds ae also well known such as disulfide and thioreductase and can be used with compounds of the present invention (Holmgren et. al., Methods in Enzymology, Volume 252, 1995, Pages 199-208 [21]).

| SMILES | cleavage of linker and 3′-protective group by cleavage agent |
| --- | --- |
| O[C@H](CS)[C@H](O)CS (racemic) [DTT, dithiothreitol] | full cleavage of both linker and the 3′-protective groups |
| N[C@@H](CS)C(=O)O [L-cysteine] | full cleavage of both linker and the 3′-protective groups |
| NCCS [cysteamine] | full cleavage of both linker and the 3′-protective groups |
| OC(=S)CCC(O)=S [dithiosuccinic acid] | selective cleavage of 3′-O-protective group |

Source: patent publication US11046726B2, “Nucleotide analogues” (QIAGEN SCIENCES, LLC, priority 2015, dated 2021)
